Key:
TrxR in MCF-7 cells = molecular target: T1, TrxR in MCF-7 cells (Homo sapiens, UniProt Q16881); test: cellular TrxR activity in MCF-7 cell lysates (insulin reduction assay); type: cell-based; conditions: for cellular TrxR activity, MCF-7 cells: 10 h treatment, 20, 30, 40 and 50 μM
T1 construct: Lysates of MCF-7 cells treated with indicated concentrations of selected SCA analogs for 10 h; endogenous in cells; host or cells: MCF-7
T1 sequence (Q16881 1-499 isoform Q16881-5): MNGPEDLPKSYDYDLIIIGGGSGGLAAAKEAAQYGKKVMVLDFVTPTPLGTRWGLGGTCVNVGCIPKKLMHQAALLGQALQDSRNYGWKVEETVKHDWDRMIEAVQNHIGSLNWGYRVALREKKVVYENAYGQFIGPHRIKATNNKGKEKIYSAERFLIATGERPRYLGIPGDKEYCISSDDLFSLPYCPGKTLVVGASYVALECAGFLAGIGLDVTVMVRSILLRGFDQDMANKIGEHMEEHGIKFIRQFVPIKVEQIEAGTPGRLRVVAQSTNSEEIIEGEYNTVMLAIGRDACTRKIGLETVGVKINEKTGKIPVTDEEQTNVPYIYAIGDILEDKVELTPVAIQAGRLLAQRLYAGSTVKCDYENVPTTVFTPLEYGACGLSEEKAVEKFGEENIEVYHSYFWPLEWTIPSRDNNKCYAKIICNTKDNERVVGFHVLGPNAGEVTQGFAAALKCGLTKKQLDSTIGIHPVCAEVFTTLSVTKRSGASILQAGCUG
Protocol: (§1) Cells were seeded onto 100 mm or 60 mm culture plates and upon reaching ~70% confluency, they were subjected to drug treatment for indicated durations. Pellets of compound-treated or DMSO control cells comprising both attached and floating cells were collected and lysed in lysis buffer (25 mM Tris-HCl pH 7.5, 100 mM NaCl, 2.5 mM EDTA, 2.5 mM EGTA, 20 mM NaF, 1 mM Na3VO4, 20 mM sodium β-glycerophosphate, 10 mM sodium pyrophosphate, 0.5% Triton X-100) with freshly added protease inhibitor cocktail (Roche Diagnostics). Prior to being used in Western blot analysis and/or cellular TrxR, GR, Trx and GPx activity determination, lysates were precleared by centrifugation and protein concentrations were determined using a modified Bradford assay (Bio-Rad Laboratories) as described in the manufacturer's manual. This procedure for collecting whole cell lysate was used for all experiments except for the Trx-redox state determination experiment. Equal amounts of protein (50 μg) in each lysate sample were separated by SDS-PAGE, followed by electroblotting onto nitrocellulose membranes. Electroblotted proteins on membranes were probed with a primary antibody and subsequently by a secondary antibody conjugated to HRP.
Freshly collected cell lysates were used for measurement of activity of cellular Trx and TrxR. To measure TrxR activity, in each well of a 96-well plate, 25 μg of cell lysate was incubated in a final volume of 50 μl containing 85 mM Hepes (pH 7.6), 0.3 mM insulin, 10 μM rhTrx1, 2.5 mM EDTA and 660 μM NADPH for 40 min at 37°C. Controls containing lysates and all reaction reagents except rhTrx1 for each lysate sample were also set up. 200 μl of 1 mM DTNB in 6 M guanidine-HCl, 200 mM Tris-HCl pH 8.0 solution was added to quench the reaction. The amount of free thiols generated from insulin reduction was determined by DTNB reduction at 412 nm using the VersaMax microplate reader. To measure Trx activity, procedures were carried out similar to those for determining cellular TrxR activity, except that the cell lysates were incubated for 20 min with 300 nM recombinant rat TrxR in place of rhTrx1. Controls containing lysates and all reaction reagents except recombinant rat TrxR for each lysate sample were also set up. For each sample, Trx or TrxR activity was calculated as the absorbance at 412 nm subtracted from that of the corresponding control and expressed as a percentage of the activity measured in DMSO-treated cells.

HCT 116 cells [1] = test: MTT cell viability assay, HCT 116 cells; type: cell-based; conditions: Homo sapiens, 72 h, mean ± SD of 3 experiments; for GI50: read-out: GI50 (50% growth inhibition concentration), HCT 116 cells
Protocol: HCT 116 and MCF-7 cells were seeded in 96-well plates at a density of 1 × 10^4 cells/well and allowed to grow for 20-24 h before addition of test compounds. DMSO stocks of indolin-2-one compounds were serially diluted in medium each time an assay was performed. Cell viability was determined at the time of compound addition (time 0) and after 72 h of compound treatment by reduction of 3-(4,5-dimethylthiazol-2-yl)-2,5-diphenyltetrazolium bromide (MTT) by dehydrogenases in viable cells. MTT was added into each well (final concentration 400 μg/ml) and the plates were incubated for 4 h at 37°C. The supernatants were aspirated and upon solubilization of the formed formazan crystals in DMSO:glycine buffer pH 10.5 (ratio 4:1), absorbance at 550 nm was measured. 50% growth inhibition concentrations (GI50) and 50% lethal concentrations (LC50) values were calculated.

[2] = molecular target: T2, TrxR in Keap1-null (Keap1−/−) MEFs (Mus musculus, UniProt Q9JMH6); test: TrxR activity in Keap1-null MEF lysates; type: cell-based; conditions: 5 h treatment, 20 to 40 μM
T2 sequence (Q9JMH6 115-613 limits assumed): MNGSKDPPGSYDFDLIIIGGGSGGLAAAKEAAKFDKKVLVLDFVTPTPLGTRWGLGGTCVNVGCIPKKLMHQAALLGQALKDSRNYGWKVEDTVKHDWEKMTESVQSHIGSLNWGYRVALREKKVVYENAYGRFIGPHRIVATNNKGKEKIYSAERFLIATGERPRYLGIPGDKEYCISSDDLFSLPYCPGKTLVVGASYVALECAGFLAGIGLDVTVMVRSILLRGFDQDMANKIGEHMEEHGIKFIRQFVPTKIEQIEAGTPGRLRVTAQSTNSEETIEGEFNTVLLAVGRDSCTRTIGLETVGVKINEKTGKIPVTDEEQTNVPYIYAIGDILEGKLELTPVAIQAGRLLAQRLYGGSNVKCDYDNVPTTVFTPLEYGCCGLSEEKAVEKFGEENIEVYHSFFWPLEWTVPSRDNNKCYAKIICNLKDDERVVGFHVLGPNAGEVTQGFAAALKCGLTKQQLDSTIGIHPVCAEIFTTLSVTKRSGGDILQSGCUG
Protocol: as §1, with “Equal amounts of protein (50 μg) in each lysate sample were separated by SDS-PAGE, followed by electroblotting onto nitrocellulose membranes. Electroblotted proteins on membranes were probed with a primary antibody and subsequently by a secondary antibody conjugated to HRP.” left out
Freshly collected cell lysates were used for measurement of activity of cellular Trx and TrxR. […] The amount of free thiols generated from insulin reduction was determined by DTNB reduction at 412 nm using the VersaMax microplate reader. […] For each sample, Trx or TrxR activity was calculated as the absorbance at 412 nm subtracted from that of the corresponding control and expressed as a percentage of the activity measured in DMSO-treated cells.

HCT 116 cells [3] = test: ROS determination (carboxy-H2DCFDA, DCF fluorescence); type: cell-based, human; conditions: 50 μM, 3 h, versus DMSO control
Protocol: Oxidative stress was assessed through estimating the level of ROS using the H2DCFDA assay with modifications. Briefly, HCT 116 cells were seeded in 6-well plates and incubated for 24-48 h at 37°C till 70-80% confluency. They were treated with H2O2 (200 μM) or compounds 4 and 5 (20, 30, 40 or 50 μM) for 3 h. Following treatment, cells were washed with PBS and incubated with 10 μM carboxy-H2DCFDA in PBS at 37°C in the dark for 45 min to allow reaction between taken up H2DCF and ROS. The cells were collected, washed with cold PBS, pelleted, resuspended in 200 μl of PBS and transferred to wells in a 96-well black fluorescence plate. The fluorescence intensities were measured at an excitation wavelength of 485 nm and an emission wavelength of 530 nm using a Tecan Infinite M200 Pro microplate reader. The results were expressed as a percentage of fluorescence intensities measured in drug-treated cells over those produced in DMSO-treated cells.

SMILES | cellular TrxR activity, MCF-7 cells (TrxR in MCF-7 cells) | GI50 (HCT 116 cells [1]) [µM] | TrxR activity in Keap1−/− MEFs [2] | LC50 (50% lethal concentration) (HCT 116 cells [1]) [µM] | DCF fluorescence (cellular oxidative stress) (HCT 116 cells [3]) | cellular TrxR activity at 40 and 50 μM, MCF-7 cells (TrxR in MCF-7 cells; 10 h treatment, 40 and 50 μM, p < 0.05 vs DMSO)
CC(=O)C=C1C(=O)N(C)c2ccccc21 [Compound 1, 1-methyl-3(2-oxopropylidene)indolin-2-one] | did not cause apparent inhibition | 11.8 ± 3.3 | – | – | – | –
CCCCN1C(=O)/C(=C/C(C)=O)c2ccccc21 [Compound 4] | decrease in TrxR activity in a dose-dependent manner | 4.5 ± 0.9 | elevated TrxR activity | 9.7 ± 0.2 | markedly increased DCF fluorescence | –
CC(=O)/C=C1/C(=O)N(Cc2ccccc2)c2ccccc21 [Compound 5] | decrease in TrxR activity in a dose-dependent manner | 3.2 ± 0.1 | elevated TrxR activity | 9.4 ± 0.3 | markedly increased DCF fluorescence | significant reduction
CN1C(=O)/C(=C/C(=O)c2ccccc2)c2ccccc21 [Compound 6] | did not cause apparent inhibition | 8.5 ± 0.8 | – | 27.2 ± 2.4 | – | –
